Reference: US8530493B2, “Indolopyridines as Eg5 kinesin modulators” (4SC AG, priority 2006, dated 2013)

Key:
[1] = tested on: RKO p27 uninduced (proliferating) colon adenocarcinoma cells; experiment: Alamar Blue cell viability assay, RKO p27 uninduced (proliferating); type: cell-based; conditions: Homo sapiens, RKOp27, Table B1, anti-proliferative/cytotoxic activity, 72 hours, read-out: −log EC50 RKO p27 uninduced (proliferating) (converted)
Experimental: The anti-proliferative/cytotoxic activity of the compounds described herein can be tested on subclones of RKO human colon adenocarcinoma cells (Schmidt et al., Oncogene 19, 2423-2429; 2000) using the Alamar Blue cell viability assay (described in O'Brien et al. Eur J Biochem 267, 5421-5426, 2000). The compounds are dissolved as 10 mM solutions in DMSO and subsequently diluted in semi-logarithmic steps. DMSO dilutions are further diluted 1:100 into Dulbecco's modified Eagle's medium (DMEM) containing 10% fetal calf serum to a final concentration twice as much as the final concentration in the test. RKO subclones are seeded into 96 well flat bottom plates at a density of 4000 cells per well in a volume of 50 μl per well. 24 hours after seeding the 50 μl each of the compound dilutions in DMEM medium are added into each well of the 96 well plate. Each compound dilution is tested as triplicates. Wells containing untreated control cells are filled with 50 μl DMEM medium containing 1% DMSO. The cells are then incubated with the substances for 72 hours at 37° C. in a humidified atmosphere containing 5% carbon dioxide. To determine the viability of the cells, 10 μl of an Alamar Blue solution (Biosource) are added and the fluorescence is measured at an extinction of 544 nm and an emission of 590 nm. For the calculation of the cell viability the emission value from untreated cells is set as 100% viability and the emission rates of treated cells are set in relation to the values of untreated cells. Viabilities are expressed as % values. The Graphpad Prism program is used for the calculation of EC50 values for anti-proliferative/cytotoxic activity out of the obtained dose-response curves.
(§1) To determine the cell cycle specific mode of action, subclones of RKO colon adenocarcinoma cells (RKOp21 or RKOp27 as described by Schmidt et al. in Oncogene 19, 2423-2429; 2000) are seeded into 96 well flat bottom plates at a density of 16000 cells per well in a volume of 50 μl per well in DMEM growth medium with 10% FCS containing 10 μM Ponasterone A. 24 hours after seeding the 50 μl each of the compound dilutions in DMEM medium are added into each well of the 96-well plate. Each compound dilution is tested as triplicates. Wells containing untreated control cells are filled with 50 μl DMEM medium containing 1% DMSO. The cells are then incubated with the substances for 72 hours at 37° C. in a humidified atmosphere containing 5% carbon dioxide. To determine the viability of the cells, 10 μl of an Alamar Blue solution (Biosource) are added and the fluorescence is measured at an extinction of 544 nm and an emission of 590 nm. For the calculation of the cell viability the emission value from untreated cells is set as 100% viability and the emission rates of treated cells are set in relation to the values of untreated cells. Viabilities are expressed as % values. The Graphpad Prism program (GraphPad Software, Inc) is used for the calculation of EC50 values out of the obtained dose-response curves. Viability is compared of proliferating cells grown in the absence of the inducer Ponasterone A, versus viability of cells arrested by the expression of ectopic p27Kip1 induced by Ponasterone A.
(§2) Representative values for anti-proliferation/cytotoxicity [measured as −log EC50 (mol/l)] determined in the aforementioned assays follow from the following tables B1, B2 and B3, in which the numbers of the compounds correspond to the numbers of the examples.

[2] = tested on: RKO p27 induced (arrested) colon adenocarcinoma cells; experiment: Alamar Blue cell viability assay, RKO p27 induced by Ponasterone A (arrested); type: cell-based; conditions: Homo sapiens, RKOp27, Table B1, cells arrested by Ponasterone A-induced p27Kip1, 72 hours, read-out: −log EC50 RKO p27 induced (arrested) (converted)
Experimental: as §1, §2

SMILES	EC50 [2] [nM]	EC50 [1] [nM]
CN(C)CCCN1C(=O)N2[C@H](c3cccc(O)c3)c3[nH]c4ccc(Cl)cc4c3C[C@@]2(C)C1=O (racemic) [Example 16, (3aSR,10RS)-6-Chloro-2-(3-dimethylamino-propyl)-10-(3-hydroxy-phenyl)-3a-methyl-3a,4,9,10-tetrahydro-2,9,10a-triaza-cyclopenta[b]fluorene-1,3-dione]	≥ 3160	≤ 39.8
CC[C@@]12Cc3c([nH]c4ccc(OC)cc34)[C@@H](c3cccc(O)c3)N1C(=O)N(CCN(C)C)C2=O (racemic) [Example 18, (3aSR,10RS)-2-(2-Dimethylamino-ethyl)-3a-ethyl-10-(3-hydroxy-phenyl)-6-methoxy-3a,4,9,10-tetrahydro-2,9,10a-triaza-cyclopenta[b]fluorene-1,3-dione]	≥ 3160	≤ 39.8
CC[C@@]12Cc3c([nH]c4ccc(OC)cc34)[C@@H](c3cccc(O)c3)N1C(=O)N(CCCN(C)C)C2=O (racemic) [Example 19, (3aSR,10RS)-2-(3-Dimethylamino-propyl)-3a-ethyl-10-(3-hydroxy-phenyl)-6-methoxy-3a,4,9,10-tetrahydro-2,9,10a-triaza-cyclopenta[b]fluorene-1,3-dione]	≥ 3160	≤ 39.8
COc1ccc2[nH]c3c(c2c1)C[C@@]1(C)C(=O)N(CCCn2ccnc2)C(=O)N1[C@@H]3c1cccc(O)c1 (racemic) [Example 20, (3aSR,10RS)-10-(3-Hydroxy-phenyl)-2-(3-imidazol-1-yl-propyl)-6-methoxy-3a-methyl-3a,4,9,10-tetrahydro-2,9,10a-triaza-cyclopenta[b]fluorene-1,3-dione]	≥ 3160	≤ 39.8
CCOc1ccc2[nH]c3c(c2c1)C[C@@]1(C)C(=O)N(CCN(C)C)C(=O)N1[C@@H]3c1cccc(O)c1 (racemic) [Example 23, (3aSR,10RS)-2-(2-Dimethylamino-ethyl)-6-ethoxy-10-(3-hydroxy-phenyl)-3a-methyl-3a,4,9,10-tetrahydro-2,9,10a-triaza-cyclopenta[b]fluorene-1,3-dione]	≥ 3160	≤ 39.8
COc1ccc2[nH]c3c(c2c1)C[C@@]1(C)C(=O)N(CCN)C(=O)N1[C@@H]3c1cccc(O)c1 (racemic) [Example 25, (3aSR,10RS)-2-(2-Amino-ethyl)-10-(3-hydroxy-phenyl)-6-methoxy-3a-methyl-3a,4,9,10-tetrahydro-2,9,10a-triaza-cyclopenta[b]fluorene-1,3-dione]	≥ 3160	≤ 39.8
CNCCN1C(=O)N2[C@H](c3cccc(O)c3)c3[nH]c4ccc(Cl)cc4c3C[C@@]2(C)C1=O (racemic) [Example 28, (3aSR,10RS)-6-Chloro-10-(3-hydroxy-phenyl)-3a-methyl-2-(2-methylamino-ethyl)-3a,4,9,10-tetrahydro-2,9,10a-triaza-cyclopenta[b]fluorene-1,3-dione]	≥ 3160	≤ 39.8
C[C@@]12Cc3c([nH]c4ccc(Cl)cc34)[C@@H](c3cccc(O)c3)N1C(=O)N(CCN1CCC1)C2=O (racemic) [Example 29, (3aSR,10RS)-2-(2-Azetidin-1-yl-ethyl)-6-chloro-10-(3-hydroxy-phenyl)-3a-methyl-3a,4,9,10-tetrahydro-2,9,10a-triaza-cyclopenta[b]fluorene-1,3-dione]	≥ 3160	≤ 39.8
C[C@@]12Cc3c([nH]c4ccc(Cl)cc34)[C@@H](c3cccc(O)c3)N1C(=O)N(CCN)C2=O (racemic) [Example 30, (3aSR,10RS)-2-(2-Amino-ethyl)-6-chloro-10-(3-hydroxy-phenyl)-3a-methyl-3a,4,9,10-tetrahydro-2,9,10a-triaza-cyclopenta[b]fluorene-1,3-dione]	≥ 3160	≤ 39.8
COc1ccc2[nH]c3c(c2c1)C[C@@]1(C)C(=O)N(CCN2CCN(C(C)=O)CC2)C(=O)N1[C@@H]3c1cccc(O)c1 (racemic) [Example 32, (3aSR,10RS)-2-[2-(4-Acetyl-piperazin-1-yl)-ethyl]-10-(3-hydroxy-phenyl)-6-methoxy-3a-methyl-3a,4,9,10-tetrahydro-2,9,10a-triaza-cyclopenta[b]fluorene-1,3-dione]	≥ 3160	39.8 to 251
COc1ccc2[nH]c3c(c2c1)C[C@@]1(C)C(=O)N(CCN2CCC(F)(F)C2)C(=O)N1[C@@H]3c1cccc(O)c1 (racemic) [Example 34, (3aSR,10RS)-2-[2-(3,3-Difluoro-pyrrolidin-1-yl)-ethyl]-10-(3-hydroxy-phenyl)-6-methoxy-3a-methyl-3a,4,9,10-tetrahydro-2,9,10a-triaza-cyclopenta[b]fluorene-1,3-dione]	≥ 3160	39.8 to 251

Continued, in another order:

EC50 [2] [nM]	SMILES	EC50 [1] [nM]
≥ 3160	COCCOc1ccc2[nH]c3c(c2c1)C[C@@]1(C)C(=O)N(CCN(C)C)C(=O)N1[C@@H]3c1cccc(O)c1 (racemic) [Example 6, (3aSR,10RS)-2-(2-Dimethylamino-ethyl)-10-(3-hydroxy-phenyl)-6-(2-methoxy-ethoxy)-3a-methyl-3a,4,9,10-tetrahydro-2,9,10a-triaza-cyclopenta[b]fluorene-1,3-dione]	≤ 39.8
≥ 3160	COc1ccc2[nH]c3c(c2c1)C[C@@]1(C)C(=O)N(CCN(C)C)C(=O)N1[C@@H]3c1cccc(O)c1 (racemic) [Example 7, (3aSR,10RS)-2-(2-Dimethylamino-ethyl)-10-(3-hydroxy-phenyl)-6-methoxy-3a-methyl-3a,4,9,10-tetrahydro-2,9,10a-triaza-cyclopenta[b]fluorene-1,3-dione]	≤ 39.8
≥ 3160	COc1ccc2[nH]c3c(c2c1)C[C@@]1(C)C(=O)N(CCCCN(C)C)C(=O)N1[C@@H]3c1cccc(O)c1 (racemic) [Example 14, (3aSR,10RS)-2-(4-Dimethylamino-butyl)-10-(3-hydroxy-phenyl)-6-methoxy-3a-methyl-3a,4,9,10-tetrahydro-2,9,10a-triaza-cyclopenta[b]fluorene-1,3-dione]	≤ 39.8
≥ 3160	C[C@@]12Cc3c([nH]c4ccc(Cl)cc34)[C@@H](c3cccc(O)c3)N1C(=O)N(CCN1CCCC1)C2=O (racemic) [Example 17, (3aSR,10RS)-6-Chloro-10-(3-hydroxy-phenyl)-3a-methyl-2-(2-pyrrolidin-1-yl-ethyl)-3a,4,9,10-tetrahydro-2,9,10a-triaza-cyclopenta[b]fluorene-1,3-dione]	≤ 39.8
≥ 3160	CNCCN1C(=O)N2[C@H](c3cccc(O)c3)c3[nH]c4ccc(OC)cc4c3C[C@@]2(C)C1=O (racemic) [Example 27, (3aSR,10RS)-10-(3-Hydroxy-phenyl)-6-methoxy-3a-methyl-2-(2-methylamino-ethyl)-3a,4,9,10-tetrahydro-2,9,10a-triaza-cyclopenta[b]fluorene-1,3-dione]	≤ 39.8
≥ 3160	C[C@@]12Cc3c([nH]c4ccc(Cl)cc34)[C@@H](c3cccc(O)c3)N1C(=O)N(CCn1ccnc1)C2=O (racemic) [Example 31, (3aSR,10RS)-6-Chloro-10-(3-hydroxy-phenyl)-2-(2-imidazol-1-yl-ethyl)-3a-methyl-3a,4,9,10-tetrahydro-2,9,10a-triaza-cyclopenta[b]fluorene-1,3-dione]	39.8 to 251
≥ 3160	COc1ccc2[nH]c3c(c2c1)C[C@@]1(C)C(=O)N(CCN2CCC2)C(=O)N1[C@@H]3c1cccc(O)c1 (racemic) [Example 33, (3aSR,10RS)-2-(2-Azetidin-1-yl-ethyl)-10-(3-hydroxy-phenyl)-6-methoxy-3a-methyl-3a,4,9,10-tetrahydro-2,9,10a-triaza-cyclopenta[b]fluorene-1,3-dione]	≤ 39.8
